Results from US10183027B2, “Lanthanide toolbox for multi-modal, non-invasive tumor specific theranostic prodrugs” (priority 2016, dated 2019).
Values joined by “and” are separate entries in the source; they are usually repeats but may differ in a detail not shown here. Identical values can stand only once.

What was measured:
[1] = T1 weighted in vivo 7T MRI imaging and bio-distribution; set-up: species or system BALB/c mice
Experimental: In vivo 7T MRI measurements of the disclosed compounds in normal mice were conducted. The images were acquired at various time points after solutions of commercial GdDOTA complex (DOTAREM), GdL and PtGdL were injected. […] GdL was immediately captured by the liver, spleen and the kidneys (FIGS. 13A and 14A). […] In comparison to GdDOTA, GdL presents a similar pattern of biodistribution in the kidneys but a slower clearance rate in the liver (0.002 vs 0.016 enh/min). However, PtGdL presents a delayed capture, longer remanence and clearance compared to GdL.
All animal experiments were performed in accordance with the institutional animal protocol guidelines in place at Paris Descartes University, (saisine CEEA34.JS.142.1) and approved by the Institute's Animal Research Committee.
Wild-type female 8 weeks BALB/c mice (Elevage Janvier, Le Genest-St-Isle, France) were anaesthetized with isoflurane (1.5%, with air/O2 0.5/0.25 L·min^−1) inhalation and placed in a dedicated contention cradle. 300 μL of Gadolinium complexes in 0.9% physiological serum were intravenously injected via the tail vein while the mouse was in the scanner. For reproducibility studies, 3 mice per group were injected (n=3).
The scanning protocol was developed using Bruker Paravision 5.1 software. DCE Dynamic contrast Enhanced sequence was recorded using Intragate Flash multislices for motion free artifacts T1 weighted sequence (TR=100 ms, TE=4 ms, alpha=80°). The final images have a spatial resolution of […] in plane. The total scan time was in the order of 3 min 14 s per images. The dynamic follow-up is measured during in a scan time of 40 minutes.
To study the biodistribution of each complex, several regions of interest (ROI) were monitored: the liver, muscle, spleen, kidney, and vessels. The corresponding MRI intensity related to the amount of the Gd complex contrast agents was plotted versus time to visualize the uptake and clearance of each complex into the organs. Comparison with commercial GdDOTA (DOTAREM, Guerbet, France) was also performed at the corresponding concentration of Gd (10 mM).

HeLa cells [2] = assay: MTT dark cytotoxicity in HeLa cells (PtGdL study); format: cell-based, human; settings: 24 hours
Experimental: (§1) Human cervical cancer HeLa cells were grown in Dulbecco's Modified Eagle Medium (DMEM). Human lung diploid fibroblasts-MRC-5 and prostate stromal-WPMY-1 cells were obtained from the cell resource center of Shanghai Institute of Biological Sciences, Chinese Academy of Sciences. MRC-5 and WPMY-1 are growth in MEM (GIBCO 41500034) and supplemented with 10% (v/v) fetal bovine serum, 1% penicillin and streptomycin at 37° C. and 5% CO2. […] After that, formazan was fully dissolved in DMSO through oscillation. Finally, the absorbance of solution was measured with Biotek Power wave xsMicroplate Reader at the wavelength of 570 nm and 690 nm.

HeLa cells [3] = assay: Two-photon induced activation, in vitro imaging and photo-cytotoxicity of PtGdL; format: cell-based, human
Experimental: The cells were incubated with PtGdL (1, 2, 5, 10 μM) for 12 hours. The complexes (cell impermeable and dissolved in the medium) were washed out with PBS buffer. The cells with complexes were placed in the tissue culture chamber (5% CO2, 37° C.) inside the two-photon confocal microscope. In vitro images were captured by using the Leica SP8 (upright configuration) confocal microscope which equipped with femto-second laser (wavelength: 700 to 1000 nm) and 40×/60× oil immersion objective. […]

WPMY-1 cells = assay: MTT dark cytotoxicity in WPMY-1 cells (PtGdL study); format: cell-based, human; settings: 24 hours
Experimental: as §1

[4] = Dynamic light scattering of PtGdL solution; format: physicochemical; settings: aqueous solution, 25.0° C.
Experimental: Dynamic Light Scattering (DLS) to investigate the presence of aggregates in a PtGdL solution was performed in Mavernm Zetasizer Nano-S equipment, at 25.0° C.

[5] = Photo-induced dissociation of the cisplatin unit in tris buffer monitored by emission; format: physicochemical; settings: tris buffer pH 7.4, UV 365 nm, 5 mW
Experimental: One of the key issues is the photodissociation level of the Pt moiety from the compounds described herein. The triplet states of the chromophores before and after photo-release the drug or upon binding with αvβ3 isoform were measured. Based on the synthetic protocols described herein, La (lanthanum) and Gd (gadolinium) analogs can be synthesized to measure the triplet states of the chromophores as well. The measurements of the triplet states of these chromophores phosphorescence and their phosphorescence lifetime was undertaken at low temperature (77K). The photodissociation kinetics of PtEuL were investigated by monitoring the emission spectrum with different irradiation times of UVA/NIR (light dosage=4 J cm^−2). The plot of responsive and initial emission intensity at 615 nm (^5D0→^7F2) vs time will be fitted in the exponential growth and decay equation to obtain the pseudo-first order rate constant.
The linear light induced dissociation of PtGdL in tris buffer (20 mM Tris base, 50 mM NaCl, pH 7.4) was monitored by determination of the emission intensity of solution of PtGdL in tris buffer with different light dosage of 365 nm UV light. In general, 3 mL of the solution of PtGdL (3 μM in tris buffer) in a 3.5 mL quartz cuvette was irradiated with a 365 nm UV lamp (5 mW) with stirring. The emission spectra of the solution were recorded at different time points (0, 1, 3, 5, 7, 10, 15, 20, 30, 45, 60, 75 and 90 min).
(Ln=Eu or Gd). The solution-state electronic adsorption and emission spectra of all the complexes and the ligand were recorded at 298 K (FIGS. 28A-28D). The EuL complex is the product of PtEuL after photo-dissociation and was used to monitor the photo-dissociation of [Pt—(NH3)2Cl]^+ from PtEuL. […] The photo-dissociation of PtEuL (3 μM in Tris-buffer, pH=7.4, 50 mM NaCl) was monitored by the variation of the Eu emission (λem=615 nm, ^5D0→^7F2) with the irradiation time. […] The pseudo-first order rate constant k was determined to be 0.53 min^−1 under these experimental conditions (FIG. 28D).

HeLa cells [6] = assay: Confocal microscopy of light-induced cytotoxicity of RuEuL; format: cell-based, human; settings: 50 μM RuEuL or 10 μM PtEuL, 6 hours, 7 mW
Excerpt: The light-induced cytotoxicity of RuEuL towards HeLa cells was also investigated by confocal microscopy (FIG. 26B) with the PtEuL complex tested under identical conditions for comparison. […] In cell culture studies, red Eu(III) emission from RuEuL was observed after 15-min irradiation. (FIG. 26A) The emission intensity increased with longer irradiation time because more excitation energy induced the dissociation of more Ru(II) moieties from the parent molecules, and the resulting EuL units generated stronger light emission. […] PtEuL is photo-activated upon ultraviolet A irradiation (λ=365 nm). However, UVA irradiation could cause severe adverse effects on human cells.

[7] = Photo-induced dissociation and dark stability of RuEuL in aqueous solution; format: physicochemical
Experimental: The photo-induced dissociation of RuEuL was simultaneously studied by emission (FIG. 21) spectroscopy, and by HPLC (FIG. 22) of the RuEuL solution (5 μM in H2O) after continuous irradiation with visible light (λirr.=488 nm, 1 W) during various times (1-8 min). After irradiation, turned-on europium emission is observed. This observation can be explained by the existence of dissociative states on Ru(II), which were proposed by Saddler et al. The photo-dissociation products, EuL and [Ru(OH)(bpy)2(H2O)]^+, have been further qualitatively identified by HPLC (FIG. 22). Before light irradiation, only one HPLC peak corresponding to RuEuL (retention time, R=11.3 min) is observed. After irradiation, this peak disappears, and two peaks of dissociated photoproducts appear.
In order to obtain the exact amount of the photo-released ruthenium(II) moiety for biomedical purpose and to evaluate drug release in real time, quantitative analysis is required. It can be achieved by LC/ESI-MS for simultaneous detection of the photo-products EuL and [Ru(OH)(bpy)2(H2O)]^+. Moreover, the switchable europium(III) emission can be considered as a real-time signaling technique for the released anticancer Ru(II) complexes and can also be exploited quantitatively. […]

HeLa cells [8] = assay: Dark and photo cytotoxicity of RuEuL against HeLa cells; format: cell-based, human; settings: HeLa
Experimental: To determine the potential of RuEuL as a photo-controlled prodrug cell cytotoxicity studies were performed on human cervical cancer (HeLa) cells, and EuL as control (FIGS. 25A and 25B). Cells were incubated 6 hours in the dark before irradiation (488 nm, 1 J); dark controls were run in parallel.

Plasmid DNA [9] = assay: Agarose gel electrophoresis of plasmid DNA with RuEuL / EuL; format: biochemical; settings: 20 μM
Experimental: Furthermore, the interaction of photo-activated RuEuL with DNA was examined by agarose gel electrophoresis (FIG. 24). Plasmid DNA (22.5 μg/mL in Tris/EDTA (TE) buffer) was incubated with the compounds (20 μM), irradiated by 488 nm light (dose 50 J m^−2) or not (control) and then subjected to 1% agarose gel electrophoresis. The separated DNA was stained with GelRed Nucleic Acid Stain (BIOTIUM) and imaged using Tanon 1600 Gel Imaging System (Tanon Science & Technology Co., Ltd).

Plasmid DNA [10] = assay: Agarose gel electrophoresis of plasmid DNA after UVA irradiation (PtEuL); format: biochemical; settings: 20 μM, UVA light dose 50 J m^−2
Excerpt: The DNA gel images were obtained using GelRed Nucleic Acid Stain (BIOTIUM).
Direct binding of PtEuL with DNA in dark were studied by circular dichroism (CD). […] The interaction of photo-activated PtEuL with DNA was examined by agarose gel electrophoresis (FIG. 29B). After UVA irradiation with PtEuL, conversion of the supercoiled conformer of the plasmid DNA to its open-circular conformer, which indicates DNA nicking (single strand break) and linear conformer, which indicates double strand break, is clearly seen.

O=C([O-])CN1CCN(CC(=O)[O-])CCN(CC(=O)[O-])CCN(CC(=O)[O-])CC1.[Gd+3] [GdDOTA, reference compound]
clearance rate in the liver ([1]; mice, i.v. tail vein): 0.016 enh/min

O.O=C([O-])CN1CCN(CC(=O)[O-])CCN(Cc2cc(C#Cc3ccc(NC(=O)c4ccncc4)cc3)ccn2)CCN(CC(=O)[O-])CC1.[Gd+3] [GdL]
IC50 (HeLa cells [2]): > 200 µM
cell death, control under the same experimental conditions (HeLa cells [3]; with 730 nm laser irradiation): no significant cell death
decrease of signal enhancement ([1]; 4 hours after injection): 90%
clearance rate in the liver ([1]; mice, i.v. tail vein): 0.002 enh/min
IC50 (WPMY-1 cells): > 200 µM

O.O=[N+]([O-])[O-].[Gd+3].[NH3+][Pt-2]([NH3+])([Cl])[n+]1ccc(C(=O)Nc2ccc(C#Cc3ccnc(CN4CCN(CC(=O)[O-])CCN(CC(=O)[O-])CCN(CC(=O)[O-])CC4)c3)cc2)cc1 [PtGdL]
PDI (DLS) [4]: 0.156
size of aggregates in solution (DLS) ([4]; single peak): 672±24 nm
IC50 (HeLa cells [2]): ~23.6 µM and ~25 µM
dosage concentration at which dramatic cell death can be observed (HeLa cells [3]; 730 nm laser excitation for 30 min): less than 5 μM
emission and cell death absent exposure to laser irradiation (HeLa cells [3]; no laser irradiation): no significant emission and/or cell death
change of signal enhancement ([1]; after 24 hours): did not change greatly
remanence time in renal cortex ([1]; mice, i.v. tail vein): 4 to 18 h
delay in capture, depending on the tissue of interest ([1]; mice, liver, spleen, kidneys): 6 to 9 min
IC50 (WPMY-1 cells): 43.9 ± 1.1 µM
pseudo-first order rate constant k for the dissociation of the cisplatin unit [5]: 0.051 min⁻¹

O.O=C([O-])CN1CCN(CC(=O)[O-])CCN(Cc2cc(C#Cc3ccc(NC(=O)c4cc[n+]([Ru-4]56([Cl])([n+]7ccccc7-c7cccc[n+]75)[n+]5ccccc5-c5cccc[n+]56)cc4)cc3)ccn2)CCN(CC(=O)[O-])CC1.[Cl-].[Eu+3] [RuEuL]
cell damage and red emission on 488 nm laser irradiation (HeLa cells [6]): cell lysis was detected after 15-min irradiation
pseudo-first order rate constant k of photo-dissociation ([7]; 5 μM in H2O, visible laser irradiation, 1 W): 0.43 min⁻¹
stability in the dark ([7]; dark, 37° C., 24 hours): stable
IC50 (HeLa cells [8]; 6 hours in the dark then irradiation (488 nm, 1 J), read-out: light IC50): 32.5 µM
IC50 (HeLa cells [8]; dark, read-out: dark IC50): > 200 µM
migration of DNA with light excitation (Plasmid DNA [9]; 488 nm light, dose 50 J m^−2): delayed
migration of DNA without irradiation (Plasmid DNA [9]; control lanes): left the DNA intact and showed normal migration

N.N.[Cl][Pt][Cl] [cisplatin, reference compound]
DNA photocleavage activity (Plasmid DNA [10]): less significantly
